According to US20170050957A1, “4-AMINO-6-(HETEROCYCLIC)PICOLINATES AND 6-AMINO-2-(HETEROCYCLIC)PYRIMIDINE-4-CARBOXYLATES AND THEIR USE AS HERBICIDES” (Dow AgroSciences LLC, priority 2013, published 2017):
Where two headings read alike, the source gives them in different places.

Columns and labels:
[1] = test system: Key Broadleaf Weed and Crop Species; experiment: Post-emergent Test II herbicidal activity (Table 15); assay type: in vivo; conditions: post-emergence, 336 h, 14 d; for pest or weed control at 35 g/ha: 35 g ai/ha; for pest or weed control at 70 g/ha: 70 g ai/ha; for pest or weed control at 140 g/ha: 140 g ai/ha
Method in brief: (§1)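 Greenhouse-grown seedlings at first/second true leaf receive a track spray at 187 L/ha, using a highest rate plus two-fold serial dilutions down to 1/16×. Watering is by subirrigation to avoid wash-off. Percent injury (0-100) is judged by eye at 14 d against untreated plants.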

[2] = test system: Key Grass and Sedge Weeds as well as Grass Crops; experiment: Post-emergent Test II herbicidal activity (Table 16); assay type: in vivo; conditions: post-emergence, 336 h; for pest or weed control at 35 g/ha: 35 g ai/ha; for pest or weed control at 70 g/ha: 70 g ai/ha; for pest or weed control at 140 g/ha: 140 g ai/ha
Method in brief: as §1

[3] = Abutilon theophrasti, velvetleaf (Abutilon theophrasti), read-out: Visual Growth Reduction (%) 14 Days After Application, ABUTH
[4] = Amaranthus retroflexus, redroot pigweed (Amaranthus retroflexus), read-out: Visual Growth Reduction (%) 14 Days After Application, AMARE
[5] = Brassica napus, oilseed rape, canola (Brassica napus), read-out: Visual Growth Reduction (%) 14 Days After Application, BRSNN
[6] = Chenopodium album, lambsquarters (Chenopodium album), read-out: Visual Growth Reduction (%) 14 Days After Application, CHEAL
[7] = Euphorbia heterophylla, wild poinsettia (Euphorbia heterophylla), read-out: Visual Growth Reduction (%) 14 Days After Application, EPHHL
[8] = Helianthus annuus, sunflower (Helianthus annuus), read-out: Visual Growth Reduction (%) 14 Days After Application, HELAN
[9] = Cyperus esculentus, yellow nutsedge (Cyperus esculentus), 14 days after application, read-out: Visual Growth Reduction (%) 14 Days After Application CYPES
[10] = Oryza sativa, rice (Oryza sativa), 14 days after application, read-out: Visual Growth Reduction (%) 14 Days After Application ORYSA
[11] = Triticum aestivum, wheat, spring (Triticum aestivum), 14 days after application, read-out: Visual Growth Reduction (%) 14 Days After Application TRZAS
[12] = Zea mays, maize, corn (Zea mays), 14 days after application, read-out: Visual Growth Reduction (%) 14 Days After Application ZEAMX
[13] = Cyperus esculentus, yellow nutsedge (Cyperus esculentus), 14 d, read-out: Visual Growth Reduction (%) 14 Days After Application, CYPES
[14] = Echinochloa crus-galli, barnyardgrass (Echinochloa crus-galli), 14 d, read-out: Visual Growth Reduction (%) 14 Days After Application, ECHCG
[15] = Oryza sativa, rice (Oryza sativa), 14 d, read-out: Visual Growth Reduction (%) 14 Days After Application, ORYSA
[16] = Setaria faberi, giant foxtail (Setaria faberi), 14 d, read-out: Visual Growth Reduction (%) 14 Days After Application, SETFA
[17] = Triticum aestivum, wheat, spring (Triticum aestivum), 14 d, read-out: Visual Growth Reduction (%) 14 Days After Application, TRZAS
[18] = Zea mays, maize, corn (Zea mays), 14 d, read-out: Visual Growth Reduction (%) 14 Days After Application, ZEAMX

SMILES	pest or weed control at 35 g/ha [1, 3]	pest or weed control at 70 g/ha [1, 3]	pest or weed control at 140 g/ha [1, 3]	pest or weed control at 35 g/ha [1, 4]	pest or weed control at 70 g/ha [1, 4]	pest or weed control at 140 g/ha [1, 4]	pest or weed control at 35 g/ha [1, 5]	pest or weed control at 70 g/ha [1, 5]	pest or weed control at 140 g/ha [1, 5]	pest or weed control at 35 g/ha [1, 6]	pest or weed control at 70 g/ha [1, 6]	pest or weed control at 140 g/ha [1, 6]	pest or weed control at 35 g/ha [1, 7]	pest or weed control at 70 g/ha [1, 7]	pest or weed control at 140 g/ha [1, 7]	pest or weed control at 35 g/ha [1, 8]	pest or weed control at 70 g/ha [1, 8]	pest or weed control at 140 g/ha [1, 8]	melting point	further results
COC(=O)c1nc(-c2ccc3cn[nH]c3c2)c(F)c(N)c1Cl [Compound 4.05]	0 to 29%	0 to 29%	45 to 59%	0 to 29%	95 to 100%	95 to 100%	0 to 29%	0 to 29%	45 to 59%	85 to 94%	85 to 94%	95 to 100%	60 to 74%	95 to 100%	95 to 100%	60 to 74%	60 to 74%	95 to 100%	185 to 187 °C	pest or weed control at 35 g/ha [2, 9]: 0 to 29%; pest or weed control at 70 g/ha [2, 9]: 0 to 29%; pest or weed control at 140 g/ha [2, 9]: 0 to 29%; pest or weed control at 140 g/ha ([2]; Echinochloa crus-galli, barnyardgrass (Echinochloa crus-galli), 14 days after application, read-out: Visual Growth Reduction (%) 14 Days After Application ECHCG): 85 to 94%; pest or weed control at 35 g/ha [2, 10]: 0 to 29%; pest or weed control at 70 g/ha [2, 10]: 0 to 29%; pest or weed control at 140 g/ha [2, 10]: 0 to 29%; pest or weed control at 140 g/ha ([2]; Setaria faberi, giant foxtail (Setaria faberi), 14 days after application, read-out: Visual Growth Reduction (%) 14 Days After Application SETFA): 95 to 100%; pest or weed control at 35 g/ha [2, 11]: 0 to 29%; pest or weed control at 70 g/ha [2, 11]: 0 to 29%; pest or weed control at 140 g/ha [2, 11]: 0 to 29%; pest or weed control at 35 g/ha [2, 12]: 0 to 29%; pest or weed control at 70 g/ha [2, 12]: 60 to 74%; pest or weed control at 140 g/ha [2, 12]: 60 to 74%
COC(=O)c1nc(-c2ccc3sccc3c2)c(C)c(N)c1Cl [Compound 3.06]	45 to 59%	60 to 74%	85 to 94%	85 to 94%	85 to 94%	95 to 100%	30 to 44%	30 to 44%	45 to 59%	30 to 44%	60 to 74%	60 to 74%	0 to 29%	0 to 29%	30 to 44%	95 to 100%	95 to 100%	95 to 100%	155 to 159 °C	pest or weed control at 35 g/ha [2, 13]: 0 to 29%; pest or weed control at 70 g/ha [2, 13]: 0 to 29%; pest or weed control at 140 g/ha [2, 13]: 0 to 29%; pest or weed control at 35 g/ha [2, 14]: 0 to 29%; pest or weed control at 70 g/ha [2, 14]: 0 to 29%; pest or weed control at 140 g/ha [2, 14]: 0 to 29%; pest or weed control at 35 g/ha [2, 15]: 0 to 29%; pest or weed control at 70 g/ha [2, 15]: 0 to 29%; pest or weed control at 140 g/ha [2, 15]: 0 to 29%; pest or weed control at 35 g/ha [2, 16]: 0 to 29%; pest or weed control at 70 g/ha [2, 16]: 0 to 29%; pest or weed control at 140 g/ha [2, 16]: 0 to 29%; pest or weed control at 35 g/ha [2, 17]: 0 to 29%; pest or weed control at 70 g/ha [2, 17]: 0 to 29%; pest or weed control at 140 g/ha [2, 17]: 0 to 29%; pest or weed control at 35 g/ha [2, 18]: 0 to 29%; pest or weed control at 70 g/ha [2, 18]: 0 to 29%; pest or weed control at 140 g/ha [2, 18]: 0 to 29%
